# Results from patent US20230398101A1, “Co-agents as Therapy Against Anaerobic Pathogens” (priority 2022, published 2023).
# Read-outs that look alike come from different tables or passages of the source.
# Legend:
# [1] = tested on: Prevotella intermedia; experiment: Anaerobic agar-dilution AST (MIC, checkerboard FIC); type: cell-based
# [2] = tested on: Lactobacillus gasseri; experiment: AST (MIC) of beneficial or mutualistic facultative anaerobic bacteria; type: cell-based
# [3] = tested on: facultative anaerobic pathogens; experiment: microbe, parasite or virus in culture; type: cell-based
# [4] = tested on: Aggretibacter actinomycetemcomitans; experiment: Anaerobic agar-dilution AST (MIC, checkerboard FIC); type: cell-based; details: strain D751, anaerobic
# [5] = tested on: Bacteroides thetaiotaomicron; experiment: microbe, parasite or virus in culture; type: cell-based; details: for MIC: anaerobic
# [6] = tested on: Pseudomonas aeruginosa; experiment: Aerobic agar-dilution AST of facultative anaerobes (MIC, checkerboard FIC); type: cell-based
# [7] = tested on: Peptostreptococcus anaerobius; experiment: Anaerobic agar-dilution AST (MIC, checkerboard FIC); type: cell-based; details: Peptostreptococcus anaerobious 807256
# [8] = tested on: Leuconostoc mesenteroides; experiment: AST (MIC) of beneficial or mutualistic facultative anaerobic bacteria; type: cell-based
# [9] = tested on: Cutibacterium acnes; experiment: Anaerobic agar-dilution AST (MIC, checkerboard FIC); type: cell-based
# [10] = tested on: Clostridioides difficile; experiment: as above; type: cell-based; details: for MIC vs clinical breakpoint (susceptibility): anaerobic (Table 17)
# [11] = tested on: Escherichia coli; experiment: Aerobic agar-dilution AST of facultative anaerobes (MIC, checkerboard FIC); type: cell-based
# [12] = tested on: Bifidobacterium animalis; experiment: Anaerobic agar-dilution AST (MIC, checkerboard FIC); type: cell-based
# [13] = tested on: Lactobacillus delbrueckii; experiment: AST (MIC) of beneficial or mutualistic facultative anaerobic bacteria; type: cell-based
# [14] = tested on: Bacteroides fragilis; experiment: Anaerobic agar-dilution AST (MIC, checkerboard FIC); type: cell-based; details: for MIC vs clinical breakpoint (susceptibility): anaerobic (Table 17)
# [15] = tested on: Staphylococcus aureus; experiment: Post-antibiotic effect (PAE) in vitro, viable counts; details: Staphylococcus aureus ATCC 33591 (beta-lactam resistant)
# [16] = tested on: Pediococcus pentosaceus; experiment: AST (MIC) of beneficial or mutualistic facultative anaerobic bacteria; type: cell-based
# [17] = tested on: Lactobacillus paracasei; experiment: as above; type: cell-based; details: Lacticaseibacillus paracasei
# [18] = tested on: Klebsiella pneumoniae; experiment: Aerobic agar-dilution AST of facultative anaerobes (MIC, checkerboard FIC); type: cell-based
structure (smiles),measurement,setting,value
"C[C@@H]1O[C@@H]1P(=O)(O)O [F, fosfomycin sodium]",MIC,"[1]; Prevotella intermedia, Prevotella intermedia 8071621, anaerobic",> 128 µg/mL
same,MIC,"[1]; Prevotella intermedia, strain 807114, anaerobic",> 128 µg/mL
same,MIC,"[1]; Prevotella intermedia, strain 8071621, anaerobic",> 128 µg/mL
same,MIC,"[1]; Prevotella intermedia, strain 8071621, anaerobic, read-out: MIC",64 µg/mL
same,MIC,"[1]; strain 8071621, anaerobic",128 µg/mL
same,MIC,[2],> 128 µg/mL
same,MIC,"[3]; Bacillus cereus, ATCC14579, pH 7, read-out: MIC",64000 µg/mL
same,MIC,"[3]; Bacillus cereus, ATCC14579, pH 8, read-out: MIC",32000 µg/mL
same,MIC,"[3]; Bacillus cereus, pH 5, read-out: MIC",4000 µg/mL
same,MIC,"[3]; Bacillus subtilis, pH 5, read-out: MIC",64000 µg/mL
same,MIC,"[3]; Yersinia pseudotuberculosis, ATCC6905, pH 7",64000 µg/mL
same,MIC,"[3]; Yersinia pseudotuberculosis, pH 5",2000 µg/mL
same,MIC,[4],16 µg/mL
same,MIC vs clinical breakpoint (susceptibility),"[5]; Bacteroides thetaiotaomicron VPI5482, anaerobic (Table 17)",−
same,MIC,[5]; Bacteroides thetaiotaomicron VPI 5842,>128 µg/mL
same,MIC,"[5]; Bacteroides thetaiotaomicron, Bacteroides thetaiotaomicron VPI 5842",128 µg/mL
same,MIC,"[5]; Bacteroides thetaiotaomicron, strain VPI5482 (Tables 1, 2) / VPI 5842 (other tables)",> 128 µg/mL
same,MIC,[6]; Pseudomonas aeruginosa,128 µg/mL
same,MIC,[6]; Pseudomonas aeruginosa 945748,128 µg/mL
same,MIC,"[6]; Pseudomonas aeruginosa, pH 5, Pseudomonas aeruginosa 27853, pH 5, read-out: MIC",32000 µg/mL
same,MIC,"[6]; Pseudomonas aeruginosa, pH 5, Pseudomonas aeruginosa 975744, pH 5, read-out: MIC",32000 µg/mL
same,MIC,"[6]; Pseudomonas aeruginosa, pH 8, Pseudomonas aeruginosa 27853, pH 8, read-out: MIC",64000 µg/mL
same,MIC,"[6]; Pseudomonas aeruginosa, strain 880238, aerobic, read-out: MIC",8 µg/mL
same,MIC,"[6]; Pseudomonas aeruginosa, strain 889058, aerobic, read-out: MIC",64 µg/mL
same,MIC,"[6]; Pseudomonas aeruginosa, strain 906939, aerobic, read-out: MIC",64 µg/mL
same,MIC vs clinical breakpoint (susceptibility),[7]; anaerobic (Table 17),+
same,MIC,"[7]; Peptostreptococcus anaerobius, anaerobic",16 µg/mL
same,MIC,[8],> 128 µg/mL
same,MIC,[9]; Cutibacterium acnes,128 µg/mL
same,MIC vs clinical breakpoint (susceptibility),"[9]; Cutibacterium acnes 6609, anaerobic (Table 17)",+
same,MIC,"[9]; Cutibacterium acnes, Cutibacterium acnes 6609, anaerobic, read-out: MIC",64 µg/mL
same,MIC,"[9]; Cutibacterium acnes, strain 6609, anaerobic, read-out: MIC",32 µg/mL
same,MIC,"[9]; strain 6609, anaerobic",64 µg/mL
same,MIC vs clinical breakpoint (susceptibility),[10]; Clostridioides difficile 2-0247-4,+
same,MIC vs clinical breakpoint (susceptibility),[10]; Clostridioides difficile 3/8,+
same,MIC vs clinical breakpoint (susceptibility),[10]; Clostridioides difficile 10-3620-5,+
same,MIC,"[10]; Clostridioides difficile, Clostridioides difficile 3/8, anaerobic, read-out: MIC",32 µg/mL
same,MIC,"[10]; Clostridioides difficile, Clostridioides difficile 10-3620-5, anaerobic",16 µg/mL
same,MIC,"[10]; Clostridioides difficile, strain 2-0247-4, anaerobic, read-out: MIC",16 µg/mL
same,MIC,"[10]; Clostridioides difficile, strain 10-3620-5, anaerobic, read-out: MIC",8 µg/mL
same,MIC,"[10]; strain 2-0247-4, anaerobic",32 µg/mL
same,MIC,"[10]; strain 10-3620-5, anaerobic",16 µg/mL
same,MIC,"[11]; ATCC25922, Escherichia coli ATCC 25922 (Table 15)",1 µg/mL
same,MIC,"[11]; ATCC25922, strain ATCC 25922, aerobic",2 µg/mL
same,MIC,[11]; Escherichia coli 846446,1 µg/mL
same,MIC,[11]; Escherichia coli 854535,4 µg/mL
same,MIC,[11]; Escherichia coli 976657,16 µg/mL
same,MIC,"[11]; pH 5, Escherichia coli 857021, pH 5",2000 µg/mL
same,MIC,"[11]; pH 7, Escherichia coli 857021, pH 7",32000 µg/mL
same,MIC,"[11]; pH 7, Escherichia coli CDC-0089, pH 7",2000 µg/mL
same,MIC,"[11]; pH 8, Escherichia coli 25922, pH 8",8000 µg/mL
same,MIC,"[11]; pH 8, Escherichia coli 857021, pH 8",4000 µg/mL
same,MIC,"[11]; pH 8, Escherichia coli CDC-0089, pH 8",64000 µg/mL
same,MIC,"[11]; strain 846446, aerobic",2 µg/mL
same,MIC,"[11]; strain 846450, aerobic",4 µg/mL
same,MIC,"[11]; strain 854566, aerobic",16 µg/mL
same,MIC,"[11]; strain 857021, aerobic",2 µg/mL
same,MIC,"[11]; strain 863678, aerobic",2 µg/mL
same,MIC,"[11]; strain 863696, aerobic",8 µg/mL
same,MIC,"[11]; strain 928017, aerobic",2 µg/mL
same,MIC,"[11]; strain 959117, aerobic",2 µg/mL
same,MIC,"[11]; strain 961128, aerobic",2 µg/mL
same,MIC,"[11]; strain 975811, aerobic",4 µg/mL
same,MIC,"[11]; strain 976657, aerobic",4 µg/mL
same,MIC,"[11]; strain 977941, aerobic",4 µg/mL
same,MIC,"[11]; strain 996332, aerobic",4 µg/mL
same,MIC,[12]; Bifidobacterium animalis,128 µg/mL
same,MIC vs clinical breakpoint (susceptibility),"[12]; Bifidobacterium animalis JLP-002, anaerobic (Table 17)",−
same,MIC,"[12]; Bifidobacterium animalis TBC0002, anaerobic",32 µg/mL
same,MIC,"[12]; Bifidobacterium animalis, Bifidobacterium animalis TBC0002, anaerobic, read-out: MIC",64 µg/mL
same,susceptibility,"[12]; Bifidobacterium, anaerobic",no susceptibility
same,MIC,"[12]; strain TBC0002, anaerobic",128 µg/mL
same,MIC,[13],> 128 µg/mL
same,MIC,"[14]; ATCC25285, Bacteroides fragilis ATCC 25285, anaerobic, read-out: MIC",64 µg/mL
same,MIC vs clinical breakpoint (susceptibility),[14]; Bacteroides fragilis 638R,−
same,MIC vs clinical breakpoint (susceptibility),[14]; Bacteroides fragilis ATCC 23745,−
same,MIC vs clinical breakpoint (susceptibility),[14]; Bacteroides fragilis ATCC 25285,−
same,MIC vs clinical breakpoint (susceptibility),[14]; Bacteroides fragilis CLA267,−
same,MIC vs clinical breakpoint (susceptibility),[14]; Bacteroides fragilis O16M,−
same,MIC,"[14]; Bacteroides fragilis, ATCC23745, Bacteroides fragilis ATCC 23745, anaerobic",> 128 µg/mL
same,MIC,"[14]; Bacteroides fragilis, ATCC23745, strain ATCC 23745, anaerobic",> 128 µg/mL
same,MIC,"[14]; Bacteroides fragilis, ATCC25285, Bacteroides fragilis ATCC 25285, anaerobic",> 128 µg/mL
same,MIC,"[14]; Bacteroides fragilis, ATCC25285, strain ATCC 25285, anaerobic",> 128 µg/mL
same,MIC,"[14]; Bacteroides fragilis, Bacteroides fragilis 016M, anaerobic",> 128 µg/mL
same,MIC,"[14]; Bacteroides fragilis, Bacteroides fragilis 638R, anaerobic",> 128 µg/mL
same,MIC,"[14]; Bacteroides fragilis, Bacteroides fragilis CLA 267, anaerobic",> 128 µg/mL
same,MIC,"[14]; Bacteroides fragilis, strain 638R, anaerobic",> 128 µg/mL
same,MIC,"[14]; Bacteroides fragilis, strain CLA267, anaerobic",> 128 µg/mL
same,MIC,"[14]; Bacteroides fragilis, strain O16M (016M), anaerobic",> 128 µg/mL
same,MIC,"[14]; strain ATCC 25285, anaerobic",128 µg/mL
same,MIC,"[14]; strain CLA267, anaerobic",128 µg/mL
same,PAE,"[15]; exposure μg/ml: F 16, D/S 1/19, V 4, F/D/S 4/0.25/4.75, F/D/S/V 2/0.125/2.38/0.5",0.5 h
same,PAE,"[15]; exposure μg/ml: F 32, D/S 2/38, V 8, F/D/S 8/0.5/9,5, F/D/S/V 4/0.25/4.75/1",0.5 h
same,PAE,"[15]; exposure μg/ml: F 64, D/S 4/64, V 16, F/D/S 16/1/19, F/D/S/V 8/0.5/9.5/2",0.5 h
same,MIC,[16],> 128 µg/mL
same,MIC,[17],> 128 µg/mL
same,MIC,[18]; Klebsiella pneumoniae 870964,64 µg/mL
same,MIC,[18]; Klebsiella pneumoniae 875638,64 µg/mL
same,MIC,"[18]; pH 5, Klebsiella pneumoniae 848788, pH 5",64000 µg/mL
same,MIC,"[18]; strain 848788, aerobic",32 µg/mL
same,MIC,"[18]; strain 857147, aerobic",32 µg/mL
same,MIC,"[18]; strain 868968, aerobic",8 µg/mL
same,MIC,"[18]; strain 869028, aerobic",8 µg/mL
same,MIC,"[18]; strain 870964, aerobic",8 µg/mL
same,MIC,"[18]; strain 875638, aerobic",16 µg/mL
same,MIC,"[18]; strain 892483, aerobic",4 µg/mL
same,MIC,"[18]; strain 926439, aerobic",4 µg/mL
same,MIC,"[18]; strain 926456, aerobic",64 µg/mL
same,MIC,"[18]; strain 939665, aerobic",64 µg/mL
same,MIC,"[18]; strain 957464, aerobic",16 µg/mL
same,MIC,"[18]; strain 957467, aerobic",16 µg/mL
same,MIC,"[18]; strain 984643, aerobic",16 µg/mL
same,MIC,"[18]; strain 993434, aerobic",16 µg/mL
same,MIC,"[18]; strain 995460, aerobic",16 µg/mL
same,MIC,"[18]; strain 1040205, aerobic",16 µg/mL
